Values belong to the compound of their own block, whether it stands above or below them.
Assays:
[1] = Stopped-flow kinetic analysis of Diels-Alder reaction of sTCO diastereomers with PEGylated tetrazine 11; conditions: for rate constant k2 with tetrazine 11: 55:45 MeOH:water at 25° C., stopped flow; for Mean k2: average of four sTCO concentrations, spread printed in cells below; for Mean k2 / k2 / kobs: tetrazine 11 0.05 mM, water:methanol 45:55, 25° C.; for kobs: in s-1 (unit assumed)
Description: Stopped flow kinetic analysis was used to measure the rate of the Diels-Alder reaction between tetrazine derivative 11 and anti- and syn-diastereomers of sTCO (4 and 5, respectively). […] The latter is the fastest rate constant that has been described for a bioorthogonal reaction. For the present study, the inventors used stopped flow analysis to compare the relative rate of the syn- and anti-diastereomers 5 and 4 with tetrazine 11 in mixed organic/aqueous media (55:45 MeOH:water at 25° C.). As expected, the rates in MeOH:water were ˜9 fold slower than the measurements made in purely aqueous media, but still extremely rapid. The rate constant for the syn-diastereomer 5 with tetrazine 11 was k2 3.7×10^4 (+/−0.1×10^3) M^−1s^−1, and the anti-diastereomer 4 reacted with a rate constant k2 3.3×10^4 (+/−0.1×10^3) M^−1s^−1. Because the syn-diastereomer was more reactive it was chosen for further development
The second order rate constant was measured under pseudo-first order conditions using an excess of the appropriate sTCO diastereomer (4 or 5), and by following the exponential decay of absorbance due to the tetrazine chromophore of 11 at 298 nm using an SX 18MV-R stopped-flow spectrophotometer (Applied Photophysics Ltd.). For each run, equal volumes of 45:55 water:methanol solutions of sTCO and PEGylated tetrazine 11 were mixed in the stopped flow device. Reactions were carried out with tetrazine 11 at 0.05 mM and final concentrations of 0.245, 0.49, 0.98 and 1.47 mM for the syn-diastereomer 5. Similarly, reactions were carried out with tetrazine 11 at 0.05 mM and final concentrations of 0.25, 0.50, 1.00 and 1.50 mM for the anti-diastereomer 4. A total of 400 data points were recorded over a period of 1 second, and each sample was performed in sextuplicate at 298 K. The kobs was determined by nonlinear regression analysis of the data points using Prism software (v. 6.00, GraphPad Software Inc.).
The reaction between sTCOs 4 & 5 and the PEGylated tetrazine 11 was measured under pseudo-first order conditions in water:methanol 45:55 by following the exponential decay of the tetrazine at 298 nm over time using an SX 18MV-R stopped flow spectrophotometer (Applied Photophysics Ltd.). Solutions were prepared for the sTCO concentrations see table below water:methanol 45:55) and the tetrazine (0.1 mM in water:methanol 45:55) and thermostatted in the syringes of the spectrophotometer before measuring. 400 data points were recorded over a period of 1 second, and performed in sextuplicate at 298 K. The kobs was determined by nonlinear regression analysis of the data points using Prism software (v. 6.00, GraphPad Software Inc.).
• PEGylated tetrazine 11 at 25° C. in water:methanol (45:55) measured under pseudo first order conditions using SX 18MV-R stopped flow spectrophotometer. Values were determined from an average of four runs. Synthesis and Characterization of a Conformationally Strained Trans-Cyclooctene with a Cis-Fused Cyclopentane Ring

[2] = In vitro stability in 1× PBS buffer; format: physicochemical; conditions: 37° C.; for radiochemical purity after incubation in 1× PBS: 2 hours
Description: (§1) An aliquot of the solution (˜25 μCi) was taken out and loaded on HPLC at 1 h and 2 h time points for analysis. ^18F-9 was also incubated in FBS at 37° C. and after 1 h, an aliquot of the solution (˜25 μCi) was taken out and added to an equal volume of TFA. Similarly, ^18F-15 was also incubated in FBS at 37° C., and at 2 and 4 h time points, aliquots of the solution (˜25 μCi) were taken and added to an equal volume of TFA. For each sample, the mixture was centrifuged at 14000 rpm for 5 min. The supernatant was then diluted with 1 mL water and loaded on C18 Sep-Pak. After washing with 1 mL water, the cartridge was eluted with 0.5 mL acetonitrile. The water fraction and acetonitrile fraction were combined and loaded on HPLC for analysis

[3] = In vitro stability in fetal bovine serum (FBS); format: in vitro ADME; conditions: 37° C.
Description: as §1

[4] = microPET imaging in normal (non-tumor bearing) nude mice; format: in vivo; conditions: normal nude mouse
Description: The inventors also performed microPET imaging with a normal (non-tumor bearing) nude mouse that had been injected with ^18F-9. […] The inventors also analyzed the clearance of the compound obtained by combining ^18F-9 with 11. This Diels-Alder conjugate—and analog of ^18F-15 that lacks the RGD moiety—still remained in the blood circulatory system after 4 hours. The blood uptake was 2.4% ID/g at 4 h post injection. The inventors have previously reported ^18F-labeled RGD probes derived from trans-cyclooctene 1.
No background correction was performed.

in vivo = conditions: mouse, iv, 3.7 MBq (100 uCi), total radioactivity
Description: (§2) The localization of ^18F-15 in human U87MG tumor-bearing mice (n=5) was performed by static microPET scans at multiple time-point post tail vein injection. Selected decay-corrected coronal images at different time points were obtained after injection of 3.7 MBq (100 μCi) of ^18F-15. […] Data are expressed as average +/−SD.
(§3) Animal procedures were performed according to a protocol approved by the UNC Institutional Animal Care and Use Committee. PET scans and image analysis were performed using a small animal PET scanner. Human U87MG tumor-bearing mice were anesthetized using 2% isoflurane and injected with 3.7 MBq (100 μCi) of ^18F-15 via the tail vein. At 0.5, 1.0, 2.0, and 4.0 h post injection, static emission scans were acquired for 10 min. Normal nude mice were injected with 3.7 MBq (100 μCi) of the Diels-Alder conjugate obtained by combining ^18F-9 and 11), or in a separate experiment by injecting only ^18F-9 using the same protocol. Raw PET images were reconstructed using 2D ordered subset expectation maximization (OSEM) algorithm. No background correction was performed. Regions of interest (ROI) were manually drawn over the tumor and other organs on the decay corrected coronal images. Based on the assumption that the tissue density is 1 g/mL, the ROIs were converted to % ID/g by dividing dose per gram at ROI by injected dose.
(§4) Quantitative data were expressed as mean±SD. Means were compared using one-way ANOVA and Student's t test. P values<0.05 were considered statistically significant.

human U87MG tumor = test: in vivo
Description: as §2, §3, §4

SMILES: OCC1C2CCC=CCCC12 (stereo not drawn) [Compound 4]
- rate constant k2 with tetrazine 11 [1]: 3.3×10^4 (+/−0.1×10^3) M^−1s^−1
- Mean k2 [1]: 31,700 M^−1s^−1
- k2 ([1]; resulting sTCO 0.25 mM): 29832 M⁻¹ s⁻¹
- kobs ([1]; resulting sTCO 0.25 mM): 7.458
- k2 ([1]; resulting sTCO 0.5 mM): 31680 M⁻¹ s⁻¹
- kobs ([1]; resulting sTCO 0.5 mM): 15.84
- k2 ([1]; resulting sTCO 1 mM): 32510 M⁻¹ s⁻¹
- kobs ([1]; resulting sTCO 1 mM): 32.51
- k2 ([1]; resulting sTCO 1.5 mM): 32653 M⁻¹ s⁻¹
- kobs ([1]; resulting sTCO 1.5 mM): 48.98

SMILES: OC[C@H]1[C@H]2CC/C=C/CC[C@@H]12 [Compound 5, (rel-1R,8S,9S,4E)-Bicyclo[6.1.0]non-4-ene-9-ylmethanol]
- rate constant k2 with tetrazine 11 [1]: 3.7×10^4 (+/−0.1×10^3) M^−1s^−1
- Mean k2 [1]: 36,100 M^−1s^−1
- k2 ([1]; resulting sTCO 0.245 mM): 34347 M⁻¹ s⁻¹
- kobs ([1]; resulting sTCO 0.245 mM): 8.415
- k2 ([1]; resulting sTCO 0.49 mM): 37571 M⁻¹ s⁻¹
- kobs ([1]; resulting sTCO 0.49 mM): 18.41
- k2 ([1]; resulting sTCO 0.98 mM): 35796 M⁻¹ s⁻¹
- kobs ([1]; resulting sTCO 0.98 mM): 35.08
- k2 ([1]; resulting sTCO 1.47 mM): 36857 M⁻¹ s⁻¹
- kobs ([1]; resulting sTCO 1.47 mM): 54.18

- radiopurity after incubation in 1× PBS ([2]; 1 hour): 97.5%
- radiochemical purity after incubation in 1× PBS [2]: 97.3%
- radiochemical purity retained in fetal bovine serum ([3]; 1 hour): 74%
- time to clearance by the gallbladder, kidney and liver [4]: ≤ 2 h
SMILES: FCCOCCOCCOC[C@@H]1[C@@H]2CC/C=C/CC[C@@H]21 [^18F-9]
- kinetics with diphenyl-s-tetrazines ([1]; general statement of reactivity): > 10^4 M^−1s^−1

SMILES: N=C(N)NCCC[C@@H]1NC(=O)C(CCCCNC(=O)CCOCCOCCOCCOCCOCCOCCOCCOCCOCCOCCOCCOCCNC(=O)OCc2ccc(C3=NNC(c4ccccc4)=C4CC[C@H]5[C@@H](CCC34)[C@H]5COCCOCCOCCF)cc2)NC(=O)[C@@H](Cc2ccc(O)cc2)NC(=O)[C@H](CC(=O)O)NC(=O)CNC1=O (stereo partly drawn) [^18F-15]
- radiochemical purity after incubation in 1× PBS [2]: 98.5%
- purity in fetal bovine serum ([3]; 2 hours post incubation): 96.7%
- purity in fetal bovine serum ([3]; 4 hours post incubation): 94.5%
- tissue uptake at 0.5 h (in vivo; tumor (U87MG)): 5.3 %ID/g
- tissue uptake at 1 h (in vivo; tumor (U87MG)): 6.9 %ID/g
- tissue uptake at 2 h (in vivo; tumor (U87MG)): 7.5 %ID/g
- tissue uptake at 4 h (in vivo; tumor (U87MG)): 8.9 %ID/g
- tissue to tissue ratio at 4 h (in vivo; tumor and kidney): 2.4
- tissue to tissue ratio at 4 h (in vivo; tumor and liver): 1.6
- tumor uptake relative to other major organs (human U87MG tumor; 4 h post injection): 1.6-2.4 fold
- tracer uptake in tumor, blocking experiment (human U87MG tumor; co-injected with non-radio labeled cRGDyK (200 μg), 1 h post injection): 4.8+/−0.3%
